US7704971B2, “Uracil reductase inactivators” (SmithKlineBeecham Corporation, priority 1990, dated 2010)
Read-outs that look alike come from different tables or passages of the source. Marks after values point to notes of the source that are not given here.

Key:
[1] = target: T1, Uracil reductase (dihydropyrimidine dehydrogenase, EC 1.3.1.2) (Bos taurus, UniProt Q28007); assay: Determination of uracil reductase inactivation; assay type: biochemical, bovine; settings: for relative first-order rate constants for inactivation of enzyme (parenthetical values): 50 micromol inactivator, fractional activity vs time of incubation; for inhibition at 100 µM: 0.5 h
T1 construct: purified from bovine liver; from tissue; host or cells: bovine liver
T1 sequence (Q28007 1-1025): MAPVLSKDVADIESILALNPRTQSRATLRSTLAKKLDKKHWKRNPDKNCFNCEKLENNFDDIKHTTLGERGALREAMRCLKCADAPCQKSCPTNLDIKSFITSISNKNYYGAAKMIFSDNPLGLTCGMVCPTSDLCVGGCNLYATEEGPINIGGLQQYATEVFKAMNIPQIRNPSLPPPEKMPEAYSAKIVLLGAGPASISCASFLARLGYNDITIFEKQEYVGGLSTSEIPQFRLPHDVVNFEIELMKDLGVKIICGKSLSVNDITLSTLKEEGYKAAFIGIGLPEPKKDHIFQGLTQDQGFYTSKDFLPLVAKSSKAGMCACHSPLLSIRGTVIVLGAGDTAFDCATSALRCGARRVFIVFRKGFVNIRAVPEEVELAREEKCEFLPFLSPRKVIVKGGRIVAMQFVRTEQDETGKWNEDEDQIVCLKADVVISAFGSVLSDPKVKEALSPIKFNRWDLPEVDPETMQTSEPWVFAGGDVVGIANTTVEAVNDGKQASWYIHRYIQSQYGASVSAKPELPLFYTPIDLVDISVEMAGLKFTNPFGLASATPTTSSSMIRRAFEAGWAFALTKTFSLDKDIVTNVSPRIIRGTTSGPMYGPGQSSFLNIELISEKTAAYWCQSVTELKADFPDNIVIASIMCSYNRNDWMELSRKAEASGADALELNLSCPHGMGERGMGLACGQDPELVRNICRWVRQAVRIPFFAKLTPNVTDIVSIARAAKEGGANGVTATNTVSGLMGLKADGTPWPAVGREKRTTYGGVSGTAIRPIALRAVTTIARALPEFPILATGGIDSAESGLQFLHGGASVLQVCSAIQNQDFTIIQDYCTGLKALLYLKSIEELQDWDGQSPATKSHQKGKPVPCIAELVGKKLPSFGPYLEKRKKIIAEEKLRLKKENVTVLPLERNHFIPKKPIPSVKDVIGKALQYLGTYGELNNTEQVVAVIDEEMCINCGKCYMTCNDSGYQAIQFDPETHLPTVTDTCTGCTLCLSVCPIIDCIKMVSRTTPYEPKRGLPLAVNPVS
Experimental: Uracil reductase (1 micromolar) (dihydropyrimidine dehydrogenase, EC 1.3.1.2) purified from bovine liver was incubated with 100 micromolar inactivator and 5 mM dithiothreitol (enzyme reductant) at 37° for 30 minutes in 0.05 M Tris-HCl at pH 8.0. The enzyme and inactivator were diluted 100-fold into the assay buffer, which contained 200 micromolar NADPH, 200 micromolar thymine and 1 mM dithiothreitol in Tris-HCl at pH 8.0. The velocity of the enzyme was determined spectrophotometrically. These velocities have been corrected for NADPH oxidase activity, which was less than […] of the rate of thymine-dependent oxidation of NADPH. The % inactivation of the enzyme was equal to 100% minus the percent of enzymatic activity remaining. Enzyme incubated without inhibitor was stable under these conditions. Parenthetical values are the relative first-order rate constants for inactivation of enzyme determined from similar experiments where the fractional activity was measured as a function of the time of incubation of 50 micromol inactivator with enzyme.

[2] = target: T2, dihydrothymidine dehydrogenase (Homo sapiens, UniProt Q12882); settings: Cancer Research 46, 1094, 1986; cited from earlier work
T2 sequence (Q12882 4-1025): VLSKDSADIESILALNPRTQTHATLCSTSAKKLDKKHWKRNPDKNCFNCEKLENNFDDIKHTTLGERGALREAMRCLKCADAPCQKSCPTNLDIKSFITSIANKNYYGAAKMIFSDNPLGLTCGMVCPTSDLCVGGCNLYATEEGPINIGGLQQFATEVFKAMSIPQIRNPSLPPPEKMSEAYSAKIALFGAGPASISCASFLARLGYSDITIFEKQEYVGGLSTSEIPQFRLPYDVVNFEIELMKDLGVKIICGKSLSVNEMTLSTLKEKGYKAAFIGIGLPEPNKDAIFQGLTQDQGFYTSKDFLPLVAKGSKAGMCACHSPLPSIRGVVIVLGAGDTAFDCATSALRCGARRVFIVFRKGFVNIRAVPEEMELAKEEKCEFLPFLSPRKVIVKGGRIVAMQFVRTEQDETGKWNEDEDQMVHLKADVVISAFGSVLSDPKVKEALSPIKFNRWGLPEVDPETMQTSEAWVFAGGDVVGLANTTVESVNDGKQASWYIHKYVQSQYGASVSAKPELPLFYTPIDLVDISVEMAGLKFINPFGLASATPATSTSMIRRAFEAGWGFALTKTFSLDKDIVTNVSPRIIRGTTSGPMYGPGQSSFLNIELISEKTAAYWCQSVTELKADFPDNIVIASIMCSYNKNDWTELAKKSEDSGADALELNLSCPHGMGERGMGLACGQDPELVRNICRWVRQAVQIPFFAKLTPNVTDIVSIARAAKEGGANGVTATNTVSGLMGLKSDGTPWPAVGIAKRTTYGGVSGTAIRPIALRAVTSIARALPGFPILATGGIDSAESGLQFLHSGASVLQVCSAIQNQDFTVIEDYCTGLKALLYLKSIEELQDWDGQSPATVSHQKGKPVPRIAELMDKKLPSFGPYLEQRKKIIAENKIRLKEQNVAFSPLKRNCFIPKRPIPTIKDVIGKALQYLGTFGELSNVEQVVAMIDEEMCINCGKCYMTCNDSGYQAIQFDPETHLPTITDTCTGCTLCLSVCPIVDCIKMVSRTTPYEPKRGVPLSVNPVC

[3] = in vivo; cited from earlier work
[4] = system: Colon 38 tumor; assay: Potentiation of the antitumor activity of 5-FU by EU, Colon 38 tumor in mice; assay type: in vivo
Experimental: Colon 38 tumor was implanted in mice on day zero. Mice (8 per group) were treated with 5-FU on days one through nine with the doses indicated in Table 2 EU was dosed i.p. at 2 mg/kg 30 minutes prior to 5-FU dosing where indicated.

[5] = 100 micromolar inactivator, 1 micromolar enzyme, 5 mM dithiothreitol, 37° for 30 minutes, pH 8.0, read-out: % Inactivation

Compound | relative first-order rate constants for inactivation of enzyme (parenthetical values) [1] | inhibition at 100 µM [1, 5] [%] | other results
C=C(Cl)c1c[nH]c(=O)[nH]c1=O [5-(1-chlorovinyl)uracil] | (5) | 100 | –
O=c1[nH]cc(C#CBr)c(=O)[nH]1 [5-bromoethynyluracil] | (8) | 100 | –
O=c1[nH]cc(Br)c(=O)[nH]1 [5-bromouracil] | – | – | inhibition at 100 µM ([1]; pH 8, read-out: % Inactivation): 75%
N#Cc1c[nH]c(=O)[nH]c1=O [5-cyanouracil] | (14) | 100 | –
CCCCC#Cc1c[nH]c(=O)[nH]c1=O [5-hex-1-ynyluracil] | – | 90 | –
CC#Cc1c[nH]c(=O)[nH]c1=O [5-propynyluracil, 5-Propynyluracil] | (8) | 100 | melting point: 275 to 280 °C (dec.)
O=c1[nH]cc(C(F)(F)F)c(=O)[nH]1 [5-trifluoromethyluracil] | – | 75 | –
C=Cc1c[nH]c(=O)[nH]c1=O [5-vinyluracil] | – | 86 | –
O=c1[nH]cc(C=CBr)c(=O)[nH]1 [BVU, 5-(2-bromovinyl)-uracil] | – | – | inhibition of dihydrothymidine dehydrogenase [2]: is an inhibitor; toxicity to humans [3]: toxic to humans
O=c1[nH]cc(I)c(=O)[nH]1 [Example 5-iodouracil, 5-iodouracil] | (4) | 100 | –
O=c1[nH]cc(F)c(=O)[nH]1 [FU, 5-fluorouracil] | – | – | % Mice Tumor Free on Day 17 ([4]; 5-FU 10 mg/kg i.p. days 1-9, no EU): 0%; % Mice Tumor Free on Day 17 ([4]; 5-FU 10 mg/kg p.o. days 1-9, no EU): 0%; % Mice Tumor Free on Day 17 ([4]; 5-FU 15 mg/kg i.p. days 1-9, no EU): 12.5%; % Mice Tumor Free on Day 17 ([4]; 5-FU 15 mg/kg p.o. days 1-9, no EU): 12.5%; % Mice Tumor Free on Day 17 ([4]; 5-FU 20 mg/kg i.p. days 1-9, no EU): 12.5%; % Mice Tumor Free on Day 17 ([4]; 5-FU 20 mg/kg p.o. days 1-9, no EU): 12.5%; % Mice Tumor Free on Day 17 ([4]; 5-FU 25 mg/kg p.o. days 1-9, no EU): 12.5%; % Mice Tumor Free on Day 17 ([4]; 5-FU 30 mg/kg i.p. days 1-9, no EU): 87.5^a %; % Mice Tumor Free on Day 17 ([4]; 5-FU 30 mg/kg p.o. days 1-9, no EU): 12.5%
